In this test the test system is maximal electroshock seizures (MES). As to the kind of experiment: antagonism of maximal electroshock seizures (MES) after oral administration. It counts as in vivo. The note with it: limits in parentheses, read-out: MES-ED50 (effective dose in 50% of treated animals). How it is done:
The activity on the CNS of the compounds of the invention was evaluated on the basis of pharmacological methods, such as, for example, the antagonism of convulsions and lethality induced by intravenous injection of bicuculline in mice (Antiepileptic Drugs, D. M. Woodbury et al. eds., 2nd edition, Raven Press, New York, 1982), or the antagonism of maximal electroshock seizures (MES) (Woodbury, L. A. and Davenport, V. D., Arch. Int. Pharmacodyn. Ther. 92; 97-104, 1952).
The following table summarizes the activity data obtained by testing in the MES test a representative group of compounds of the invention in comparison with the respective 2-desmethyl related compounds known from WO 90/14334.
ED50 means effective dose in 50% of treated animals after per os (po) administration.

The structures appear in SMILES notation.

In general, ED50 refers to the dose at which the effect has come halfway, by size or by number of responders. On to `C[C@H](NCc1ccc(OCc2cccc(Cl)c2)cc1)C(N)=O` [FCE 26193A, (S)-2-(4-(3-chlorobenzyloxy)benzylamino) propanamide, methanesulfonate], for which the ED50 worked out at 9.41 mg/kg.

`C[C@H](NCc1ccc(OCc2ccccc2F)cc1)C(N)=O` [FCE 26742A, (S)-2-(4-(2-fluorobenzyloxy)benzylamino) propanamide, methanesulfonate]: the ED50 is 7.13 mg/kg.

As for `CC(C)(NCc1ccc(OCc2ccccc2F)cc1)C(N)=O.CS(=O)(=O)O` [FCE 29484A, 2-[4-(2-fluorobenzyloxy)benzylamino]-2-methyl-propanamide, methanesulfonate], the ED50 is 3.1 mg/kg.

As for `CNC(=O)[C@H](C)NCc1ccc(OCc2cccc(F)c2)cc1.CS(=O)(=O)O` [FCE 28657A, (S)-2-(4-(3-fluorobenzyloxy)benzylamino)-N-methylpropanamide, methanesulfonate], the ED50 came to 9.35 mg/kg.

Turning to `CC(C)(NCc1ccc(SCc2ccccc2)cc1)C(N)=O` [FCE 29482A, 2-[(4-benzylsulfanyl)benzylamino]-2-methyl-propanamide, methanesulfonate], the ED50 is 3.12 mg/kg.

With `C[C@H](NCc1ccc(OCc2ccc(F)cc2)cc1)C(N)=O` [FCE 26998A, (S)-2-(4-(4-fluorobenzyloxy)benzylamino) propanamide, methanesulfonate], the ED50 was 16.3 mg/kg.

`C[C@H](NCc1ccc(SCc2ccccc2)cc1)C(N)=O` [FCE 26727A, (S)-2-(4-benzylsulfanyl)benzylamino) propanamide, methanesulfonate]: the ED50 came out at 12.7 mg/kg.

Consider `CC(C)(NCc1ccc(OCc2cccc(Cl)c2)cc1)C(N)=O` [FCE 29644A, 2-[4-(3-chlorobenzyloxy)benzylamino]-2-methyl-propanamide, methanesulfonate], for which the median effective dose (ED50) stood at 3.88 mg/kg.

On to `CC(C)(NCc1ccc(OCc2cccc(F)c2)cc1)C(N)=O` [FCE 29088A, 2-[4-(3-fluorobenzyloxy)benzylamino]-2-methyl-propanamide, methanesulfonate], for which the ED50 came to 4.4 mg/kg.

Turning to `CNC(=O)C(C)(C)NCc1ccc(OCc2cccc(F)c2)cc1.CS(=O)(=O)O` [FCE 29647A, 2-[4-(3-fluorobenzyloxy)benzylamino]-2-methyl-N-methyl-propanamide, methanesulfonate], the ED50 was found to be 4.34 mg/kg.

With `CC(C)(NCc1ccc(OCc2ccc(F)cc2)cc1)C(N)=O.CS(=O)(=O)O` [FCE 29645A, 2-[4-(4-fluorobenzyloxy)benzylamino]-2-methyl-propanamide, methanesulfonate], the ED50 amounted to 6.58 mg/kg.

`C[C@H](NCc1ccc(OCc2cccc(F)c2)cc1)C(N)=O` [FCE 26743A, (S)-2-(4-(3-fluorobenzyloxy)benzylamino) propanamide, methanesulfonate]: the ED50 was 8.2 mg/kg.

The values above are taken from US5945454A, “2-(4-substituted)-benzylamino-2-methyl-propanamide derivatives” (Pharmacia & Upjohn, S.P.A., priority 1995, dated 1999).
